# Measurements published in ChEMBL document CHEMBL3259609, “Optimization of pancreatic lipase inhibition by Cudrania tricuspidata fruits using response surface methodology” (Bioorg Med Chem Lett, 2014).
# Key:
# [1] = biological target: T1, Pancreatic triacylglycerol lipase (Sus scrofa) (UniProt P00591); details: 10 uM
# T1 sequence (whole entry): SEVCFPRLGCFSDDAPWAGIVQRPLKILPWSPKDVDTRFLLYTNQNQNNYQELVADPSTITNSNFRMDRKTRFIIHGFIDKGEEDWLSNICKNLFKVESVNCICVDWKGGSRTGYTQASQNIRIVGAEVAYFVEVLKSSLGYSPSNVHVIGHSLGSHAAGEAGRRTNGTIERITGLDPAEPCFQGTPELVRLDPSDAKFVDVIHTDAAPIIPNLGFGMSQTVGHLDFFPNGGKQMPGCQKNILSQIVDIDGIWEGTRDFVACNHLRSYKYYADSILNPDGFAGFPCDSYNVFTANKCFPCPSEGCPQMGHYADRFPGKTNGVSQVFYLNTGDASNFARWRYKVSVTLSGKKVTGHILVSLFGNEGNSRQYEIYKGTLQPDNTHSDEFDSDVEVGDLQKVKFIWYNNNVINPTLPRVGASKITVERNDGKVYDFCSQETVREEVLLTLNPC
# Description: Inhibition of porcine pancreatic lipase assessed as hydrolysis of p-NPB to p-nitrophenol at 10 uM by microplate reader relative to control
# [2] = biological target: T2, Pancreatic triacylglycerol lipase (Sus scrofa, UniProt P00591); assay: Inhibition of porcine pancreatic lipase assessed as hydrolysis of p-NPB to p-nitrophenol by microplate reader
# T2 sequence (P00591 whole entry): T1 sequence (whole entry)
structure (smiles),measurement,setting,value
CC(C)=CCc1c(O)c(CC=C(C)C)c2occ(-c3ccc(O)cc3)c(=O)c2c1O,inhibition,[1],72.2%
same,IC50,[2],65 µM
